Here are results for six compounds from patent publication US20060286679A1, “Immunochromatographic method” (Mitsubishi Kagaku latron, Inc., priority 2003, published 2006).

One data set has as its system Human whole blood. Description: Observation on hemolysis after mixing whole blood with equal volume of detergent liquid. Note: key: Hml: Hemolyzed; Not hemolyzed; FCD: Failure in chromatographic development. Format: cell-based. How it is done: Deionized water, physiological saline (150 mmol/L sodium chloride liquid), and a 10 mmol/L phosphate buffer (pH 7.5, 150 mmol/L sodium chloride) were prepared.
Human whole blood (100 μL) collected using a tube containing heparin anticoagulant was mixed with an equal volume of each detergent liquid (100 μL) to prepare each sample. After 10 minutes from the mixing, hemolysis in each sample was observed visually. The “hemolysis” was judged on the basis of a transparent state caused by a solubilization of erythrocytic membrane and elution of red pigments such as hemoglobin from erythrocytes.
Total concentrations of five detergents in the four mixed liquids were 0.2, 1.0, 5.0, and 20%, respectively.

A further data set deals with mite-specific IgE. Description: Enzyme immunochromatographic measurement of specific IgE in hemolyzed whole-blood-derived sample. Details: species or system human.
Setting [1] is: Example 1, detergent liquid 1% (final half), visual, 10 min after mixing.
Setting [2] is: Example 1, detergent liquid 5% (final half), visual, 10 min after mixing.
Where [3] appears, read: Example 1, detergent liquid 20% (final half), visual, 10 min after mixing.
Setting [4] is: Example 2, detergent liquid 1% (final half).
Setting [5] is: Example 2, detergent liquid 5% (final half).
Where [6] appears, read: Example 2, detergent liquid 20% (final half).

Experimental for mite-specific IgE: A nitrocellulose membrane (HF180; pore size=5 to 8 μm; Millipore) was cut into a rectangular piece (5 mm×25 mm). An aqueous solution of extracted mite allergen proteins (1 mg/mL) was applied linearly with a width of 1 mm at the position of 15 mm from an end (upstream) of the membrane. In this connection, the aqueous solution was previously prepared by diluting a Dermatophagoides pteronyssinus extract (Glia) with a 5 mmol/L borate buffer (pH 8.5) and dialyzing the diluted solution.
A plastic adhesive sheet (BioDot) was cut into a rectangular piece (5 mm×60 mm). […] In this connection, adjacent pieces attached on the adhesive sheet were overlapped with each other at a width of approximately 1 mm.
Each aliquot (50 μL) of whole-blood-derived samples prepared by hemolysis and solubilization was dispensed into each well of a microplate. […]
As the above samples, sample 1 (mite-specific IgE=0 IU/mL), sample 2 (mite-specific IgE=3 IU/mL), and sample 3 (mite-specific IgE=10 IU/mL) were used. The amounts of mite-specific IgE were measured by a conventional quantitative analysis (AlaSTAT specific IgE antibody measuring kit; obtained from Iatron and manufactured by DPC, US) and shown by IU/mL, an international standard unit.

For the compound “polyoxyethylene laurylether [Emulgen 108]”, the Hemolysis result in the data set with Human whole blood (setting [1]), in the data set with Human whole blood (setting [2]), in the data set with Human whole blood (setting [3]), in the data set with Human whole blood (setting [4]), with Human whole blood (setting [5]) and in the data set on Human whole blood (setting [6]) was “Hml” throughout.

As to `CCCCCCCCCCCCCCCCCC[N+](C)(C)CC(=O)[O-]` [Amphitol 86B, stearyl betaine], the “solubilization of whole blood, immunochromatographic staining, and immunochromatographic development” value with mite-specific IgE is on record as “cannot be performed”. Moreover, the Hemolysis entry with Human whole blood (setting [1]), with Human whole blood (setting [2]), in the data set on Human whole blood (setting [3]), with Human whole blood (setting [4]), with Human whole blood (setting [5]) and with Human whole blood (setting [6]) was “Hml” each time.

As for polyoxyethylene monolaurate [Tween 20], the Hemolysis result in the data set with Human whole blood (setting [3]) and with Human whole blood (setting [6]) was “Hml” in each case.

For `C[C@H](CCC(=O)NCCC[N+](C)(C)CCCS(=O)(=O)[O-])[C@H]1CC[C@H]2[C@@H]3[C@H](O)C[C@@H]4C[C@H](O)CC[C@]4(C)[C@H]3C[C@H](O)[C@]12C` [CHAPS, 3-[(3-cholamido-propyl)dimethyl-ammonio]propanesulfonic acid], the Hemolysis entry in the data set with Human whole blood (setting [1]), in the data set on Human whole blood (setting [2]), in the data set on Human whole blood (setting [3]), in the data set on Human whole blood (setting [4]), in the data set with Human whole blood (setting [5]) and in the data set with Human whole blood (setting [6]) was “Hml” in each case.

Turning to `CCCCCCCCCCCCOS(=O)(=O)[O-].[Na+]` [sodium dodecyl sulfate], the Hemolysis entry in the data set with Human whole blood (Example 1, detergent liquid 0.2% (final half), visual, 10 min after mixing) was “Hml”; in the data set on Human whole blood (setting [1]) it was “Hml”; with Human whole blood (setting [2]) it was “Hml”; in the data set on Human whole blood (setting [3]) it was “Hml”; in the data set on Human whole blood (Example 2, detergent liquid 0.2% (final half)), “Hml”; with Human whole blood (setting [4]), “Hml”. For the same compound, the Hemolysis entry with Human whole blood (setting [5]) and in the data set with Human whole blood (setting [6]) was “Hml” in each case.

For “polyethylene glycol mono-para-iso-octylphenyl ester [Triton X-100]”, in the data set on mite-specific IgE, the “solubilization of whole blood, immunochromatographic staining, and immunochromatographic development” value is recorded as “cannot be performed”. The Hemolysis entry with Human whole blood (setting [1]), in the data set with Human whole blood (setting [2]), in the data set on Human whole blood (setting [3]), in the data set with Human whole blood (setting [4]), in the data set with Human whole blood (setting [5]) and in the data set on Human whole blood (setting [6]) was “Hml” throughout.
